Experimental data published in patent US8530426B2, “Cosmetic or dermopharmaceutical composition comprising at least one UDP glucuronosyl transferase (UGT) enzymes inducer” (Sederma SAS, priority 2004, dated 2013).

Tests used:
UGT1A1 mRNA = assay: Induction of UGT1A1 mRNA by chrysin, RT-PCR in hepG2 cells; format: cell-based, Human; conditions: 3 days
Description: Human hepG2 cells were cultured in an appropriate medium (Williams medium) in the presence or absence of the inductor, chrysin, for 3 days At the end of that period, cell lysis was induced, mRNA extracted and RT-PCR conducted
Quantification of UGT1A1 mRNA: The study was conducted after 3 days of incubation in the presence of chrysin. The values, shown in Table 1, obtained were normalized on the GADPH internal standard and then expressed as percentages relative to the reference.

Human keratinocytes = assay: PGE2 release post-UVB irradiation, keratinocytes (ELISA); format: cell-based; conditions: for Change in PGE2 release post-UVB irradiation, keratinocytes: UVB 30 mJ/cm2, 24 hours
Description: (§1) Human keratinocytes and fibroblasts were cultured in an appropriate medium in the presence of various concentrations of chrysin for 24 hours. The cells were then transferred to a product-free medium and exposed to a pro-inflammatory dose of UVB radiation at a dosage of 35 mJ/cm2 for fibroblasts and 30 mJ/cm2 for keratinocytes. Following irradiation, the cells were then post-incubated either in medium alone or in medium containing various concentrations of chrysin vs. a positive control (acetylsalicylic acid) for 24 hours. PGE2 release into the culture medium after 24 hours was determined using an ELISA method.

fibroblasts = assay: PGE2 release post-UVB irradiation, fibroblasts (ELISA); format: cell-based, Human; conditions: for Change in PGE2 release post-UVB irradiation, fibroblasts: UVB 35 mJ/cm2, 24 hours
Description: as §1

[1] = positive control, concentration not given

SMILES: O=c1cc(-c2ccccc2)oc2cc(O)cc(O)c12 [Chrysin, 5,7-dihydroxyflavone]
- UGT1A1 Induction (UGT1A1 mRNA; chrysin 7.8 μM): ×2.5
- UGT1A1 mRNA, normalized on GADPH, percentage relative to the reference (UGT1A1 mRNA; chrysin 7.8 μM): 247%
- UGT1A1 Induction (UGT1A1 mRNA; chrysin 11.8 μM): ×6
- UGT1A1 mRNA, normalized on GADPH, percentage relative to the reference (UGT1A1 mRNA; chrysin 11.8 μM): 600%
- increase in UGT1A1 mRNA (in words) (UGT1A1 mRNA; dose effect): very marked increase
- Change in PGE2 release post-UVB irradiation, keratinocytes (Human keratinocytes; 2 μM): −75%
- Change in PGE2 release post-UVB irradiation, keratinocytes (Human keratinocytes; 3.9 μM): −84%
- Change in PGE2 release post-UVB irradiation, keratinocytes (Human keratinocytes; 7.8 μM): −85%
- Change in PGE2 release post-UVB irradiation, keratinocytes (Human keratinocytes; 11.8 μM): −86%
- inhibition of keratinocytic PGE2 (Human keratinocytes; maximum over the chrysin concentrations, without a dose effect): up to 85%
- Change in PGE2 release post-UVB irradiation, fibroblasts (fibroblasts; 2 μM): −76%
- Change in PGE2 release post-UVB irradiation, fibroblasts (fibroblasts; 3.9 μM): −85%
- Change in PGE2 release post-UVB irradiation, fibroblasts (fibroblasts; 7.8 μM): −89%
- Change in PGE2 release post-UVB irradiation, fibroblasts (fibroblasts; 11.8 μM): −92%

SMILES: CC(=O)Oc1ccccc1C(=O)O [acetylsalicylic acid, reference compound]
- Change in PGE2 release post-UVB irradiation, keratinocytes (Human keratinocytes; [1]): −92%
- inhibition of PGE2, keratinocytes (Human keratinocytes; [1]): greater than 90%
- Change in PGE2 release post-UVB irradiation, fibroblasts (fibroblasts; [1]): −95%
- inhibition of PGE2, fibroblasts (fibroblasts; [1]): greater than 90%
